Experimental findings from US8841321B2, “Quinoline derivatives as antibacterial agents” (Janssen Pharmaceutica NV, priority 2005, dated 2014) are described below.

SMILES strings stand for the structures. Values after ≈ are worked out from the molar mass of the structure shown.

What all share (test): Microtitre plate assay, IC90 determination
Format in all cases: cell-based

Test [1] has as its system SPN 6305 (Streptococcus pneumoniae (ATCC6305)). Particulars: for IC90 (μg/ml) SPN 6305: Streptococcus pneumoniae (ATCC6305). In outline:
(§1)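 Growth-inhibition endpoint: resazurin added 3 h after inoculation, plates incubated overnight, fluorescence at 530/590 nm after 24 h at 37 °C. Inocula of roughly 10–60 CFU per well in Mueller-Hinton medium; compounds titrated five-fold. IC90 reported as μg/ml.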

The subject of test [2] is STA 29213 (Staphylococcus aureus (ATCC29213)). Particulars: for IC90 (μg/ml) STA 29213: Staphylococcus aureus (ATCC29213). The method in brief:
as §1

The subject of test [3] is BSU 43639 (Bacillus subtilis (ATCC43639)). Particulars: for IC90 (μg/ml) BSU 43639: Bacillus subtilis (ATCC43639); for IC90: Bacillus subtilis, ATCC43639, Bacillus subtilis (ATCC43639), read-out: IC90 (μg/ml) BSU 43639.
Test [4] has as its system EFA 29212 (Enterococcus faecalis (ATCC29212)). Particulars: for IC90 (μg/ml) EFA 29212: Enterococcus faecalis (ATCC29212); for IC90: Enterococcus faecalis, ATCC29212, Enterococcus faecalis (ATCC29212), read-out: IC90 (μg/ml) EFA 29212.
Test [5] has as its system LMO 49594 (Listeria monocytogenes (ATCC49594)). Particulars: for IC90 (μg/ml) LMO 49594: Listeria monocytogenes (ATCC49594); for IC90: Listeria monocytogenes, ATCC49594, Listeria monocytogenes (ATCC49594), read-out: IC90 (μg/ml) LMO 49594.
The test system of test [6] is PAE 27853 (Pseudomonas aeruginosa (ATCC27853)). Particulars: for IC90 (μg/ml) PAE 27853: Pseudomonas aeruginosa (ATCC27853); for IC90: Pseudomonas aeruginosa, ATCC27853, Pseudomonas aeruginosa (ATCC27853), read-out: IC90 (μg/ml) PAE 27853.
The test system of test [7] is SPY 8668 (Streptococcus pyogens (ATCC8668)). Particulars: for IC90 (μg/ml) SPY 8668: Streptococcus pyogens (ATCC8668); for IC90: Streptococcus, ATCC8668, Streptococcus pyogens (ATCC8668), read-out: IC90 (μg/ml) SPY 8668.
In test [8] the test system is STA 25923 (Staphylococcus aureus (ATCC25923)). Particulars: for IC90 (μg/ml) STA 25923: Staphylococcus aureus (ATCC25923).
For test [9], the system named is STA RMETH (methicilline resistant Staphylococcus aureus (MRSA), a clinical isolate from the University of Antwerp). Particulars: for IC90: Staphylococcus aureus, MRSA, read-out: IC90 (μg/ml) STA RMETH.

As for `COc1nc2ccc(Br)cc2cc1C(c1ccccc1)C(O)(CCCCN(C)C)c1ccc2ccccc2c1` (stereo not shown) [Compound 23], in test [1], the “IC90 (μg/ml) SPN 6305” value was determined as 11.6 µg/mL (≈ 19.9 µM). In addition, the “IC90 (μg/ml) STA 29213” value in test [2] was determined as 1.9 µg/mL (≈ 3.26 µM). The “IC90 (μg/ml) BSU 43639” value in [3] was 58.4 µg/mL (≈ 100 µM). Also, the “IC90 (μg/ml) EFA 29212” value in [4] was 4.1 µg/mL (≈ 7.03 µM). Besides, in [5], the “IC90 (μg/ml) LMO 49594” value turned out to be 36.8 µg/mL (≈ 63.1 µM). Further, the “IC90 (μg/ml) PAE 27853” value in [6] was found to be 1.9 µg/mL (≈ 3.26 µM). The “IC90 (μg/ml) SPY 8668” value in test [7] turned out to be 46.4 µg/mL (≈ 79.5 µM). Besides, the “IC90 (μg/ml) STA 25923” value in test [8] came to 58.4 µg/mL (≈ 100 µM). For the same compound, the “IC90 (μg/ml) STA RMETH” value in test [9] came to 58.4 µg/mL (≈ 100 µM).

Consider `COc1nc2ccc(Br)cc2cc1C(c1ccccc1)C(O)(CCCN(C)C)c1ccccc1` (stereo not shown) [Compound 45], for which the “IC90 (μg/ml) SPN 6305” value in [1] was determined as 52.0 µg/mL (≈ 100 µM). The “IC90 (μg/ml) STA 29213” value in [2] was determined as 41.3 µg/mL (≈ 79.5 µM). For the same compound, the “IC90 (μg/ml) BSU 43639” value in test [3] was 52.0 µg/mL (≈ 100 µM). The “IC90 (μg/ml) EFA 29212” value in test [4] was found to be 52.0 µg/mL (≈ 100 µM). For the same compound, the “IC90 (μg/ml) LMO 49594” value in test [5] was determined as 41.3 µg/mL (≈ 79.5 µM). Further, the “IC90 (μg/ml) PAE 27853” value in test [6] was 52.0 µg/mL (≈ 100 µM). The “IC90 (μg/ml) SPY 8668” value in test [7] amounted to 52.0 µg/mL (≈ 100 µM). Further, the “IC90 (μg/ml) STA 25923” value in [8] stood at 41.3 µg/mL (≈ 79.5 µM). In test [9], the “IC90 (μg/ml) STA RMETH” value came out at 41.3 µg/mL (≈ 79.5 µM).

Turning to `COc1nc2ccc(Br)cc2cc1C(c1ccccc1)C(O)(CCCN(C)C)c1cccc2ccccc12` (stereo not shown) [Compound 50], the IC90 in [1] (Streptococcus pneumoniae, ATCC6305, Streptococcus pneumoniae (ATCC6305), read-out: IC90 (μg/ml) SPN 6305) worked out at 14.3 µg/mL (≈ 25.1 µM); in [2] (Staphylococcus aureus, ATCC29213, Staphylococcus aureus (ATCC29213), read-out: IC90 (μg/ml) STA 29213), 45.2 µg/mL (≈ 79.4 µM); in test [3], 14.3 µg/mL (≈ 25.1 µM); in [4], 57 µg/mL (≈ 100 µM); in [5], 14.3 µg/mL (≈ 25.1 µM); in [6], 11.4 µg/mL (≈ 20 µM). For the same compound, the IC90 was found to be 11.4 µg/mL (≈ 20 µM) in test [7]; 14.3 µg/mL (≈ 25.1 µM) in [8] (Staphylococcus aureus, ATCC25923, Staphylococcus aureus (ATCC25923), read-out: IC90 (μg/ml) STA 25923); 14.3 µg/mL (≈ 25.1 µM) in test [9].

`COc1nc2ccc(Br)cc2cc1C(c1ccccc1)C(O)(CCCCN(C)C)c1ccc2ccccc2c1` (stereo not shown) [Compound 24]: the “IC90 (μg/ml) SPN 6305” value in test [1] was 1.9 µg/mL (≈ 3.26 µM). Moreover, the “IC90 (μg/ml) STA 29213” value in test [2] was determined as 1.9 µg/mL (≈ 3.26 µM). Further, in [3], the “IC90 (μg/ml) BSU 43639” value came to 1.9 µg/mL (≈ 3.26 µM). In test [4], the “IC90 (μg/ml) EFA 29212” value turned out to be 1.9 µg/mL (≈ 3.26 µM). In [5], the “IC90 (μg/ml) LMO 49594” value is 1.9 µg/mL (≈ 3.26 µM). For the same compound, in test [6], the “IC90 (μg/ml) PAE 27853” value is 1.9 µg/mL (≈ 3.26 µM). The “IC90 (μg/ml) SPY 8668” value in test [7] came to 1.9 µg/mL (≈ 3.26 µM). Besides, the “IC90 (μg/ml) STA 25923” value in test [8] turned out to be 0.5 µg/mL (≈ 0.857 µM). Also, the “IC90 (μg/ml) STA RMETH” value in test [9] is 1.9 µg/mL (≈ 3.26 µM).

As to `COc1ccc2cc(C(O)(CCCCN(C)C)C(c3ccccc3)c3cc4cc(Br)ccc4nc3OC)ccc2c1` (single isomer, unassigned) [Compound 6], the “IC90 (μg/ml) SPN 6305” value in [1] was determined as 4.9 µg/mL (≈ 7.99 µM). Besides, the “IC90 (μg/ml) STA 29213” value in test [2] was 4.3 µg/mL (≈ 7.01 µM). For the same compound, the “IC90 (μg/ml) BSU 43639” value in test [3] stood at 9.7 µg/mL (≈ 15.8 µM). The “IC90 (μg/ml) EFA 29212” value in test [4] amounted to 9.7 µg/mL (≈ 15.8 µM). Also, in test [5], the “IC90 (μg/ml) LMO 49594” value came to 9.7 µg/mL (≈ 15.8 µM). The “IC90 (μg/ml) PAE 27853” value in [6] is 9.7 µg/mL (≈ 15.8 µM). The “IC90 (μg/ml) SPY 8668” value in [7] was determined as 1.9 µg/mL (≈ 3.1 µM). The “IC90 (μg/ml) STA RMETH” value in test [9] stood at 9.7 µg/mL (≈ 15.8 µM).

Regarding `CSc1nc2ccc(Br)cc2cc1C(c1ccccc1)C(O)(CCCCN(C)C)c1ccc2ccccc2c1` (single isomer, unassigned) [Compound 4], the “IC90 (μg/ml) SPN 6305” value in test [1] was 1.9 µg/mL (≈ 3.17 µM). In test [2], the “IC90 (μg/ml) STA 29213” value turned out to be 1.9 µg/mL (≈ 3.17 µM). Further, the IC90 in test [3] worked out at 9.5 µg/mL (≈ 15.8 µM); in [4], 9.5 µg/mL (≈ 15.8 µM); in test [5] it was 9.5 µg/mL (≈ 15.8 µM); in test [6] it was 1.9 µg/mL (≈ 3.17 µM); in test [7], 1.9 µg/mL (≈ 3.17 µM); in test [9], 9.5 µg/mL (≈ 15.8 µM).

On to `COc1nc2ccc(Br)cc2cc1C(c1ccccc1)C(O)(CCCCN1CCN(C)CC1)c1ccc2ccccc2c1` (single isomer, unassigned) [Compound 112], for which the “IC90 (μg/ml) SPN 6305” value in test [1] was 2.54 µg/mL (≈ 3.98 µM). The “IC90 (μg/ml) STA 29213” value in test [2] came out at 2.02 µg/mL (≈ 3.16 µM). For the same compound, in test [4], the “IC90 (μg/ml) EFA 29212” value is 2.02 µg/mL (≈ 3.16 µM). In test [6], the “IC90 (μg/ml) PAE 27853” value is 2.02 µg/mL (≈ 3.16 µM). Further, the “IC90 (μg/ml) SPY 8668” value in test [7] was 2.02 µg/mL (≈ 3.16 µM). For the same compound, in test [9], the “IC90 (μg/ml) STA RMETH” value was determined as 2.54 µg/mL (≈ 3.98 µM).

As to `CNCCCCC(O)(c1ccc2ccccc2c1)C(c1ccccc1)c1cc2cc(Br)ccc2nc1OC` (racemic) [Compound 75], the “IC90 (μg/ml) SPN 6305” value in [1] is 0.9 µg/mL (≈ 1.58 µM). The “IC90 (μg/ml) STA 29213” value in test [2] turned out to be 2.02 µg/mL (≈ 3.55 µM). For the same compound, the “IC90 (μg/ml) EFA 29212” value in test [4] came out at 4.03 µg/mL (≈ 7.08 µM). For the same compound, the “IC90 (μg/ml) PAE 27853” value in test [6] is 2.02 µg/mL (≈ 3.55 µM). The “IC90 (μg/ml) SPY 8668” value in test [7] was found to be 1.8 µg/mL (≈ 3.16 µM). The “IC90 (μg/ml) STA RMETH” value in test [9] was 11.36 µg/mL (≈ 19.9 µM).
